Patent US20100286038A1, “FORMULATION CONTAINING CYCLIN-DEPENDENT KINASE INHIBITING COMPOUND AND METHOD OF TREATING TUMORS USING THE SAME” (priority 2007, published 2010)
Where two headings read alike, the source gives them in different places.

Procedure: The contents of the IV bag were infused over a two hour period. […] Each patient was dosed on a 28 day cycle, comprising an infusion once a week for the first three weeks of the cycle on days 1, 8, and 15 of each cycle, with no dose administered in the week following the third dose.
[1] = Table V, 2 hour IV infusion, 0.66 mg/M^2
[2] = Table V, 2 hour IV infusion, 1.85 mg/M^2
[3] = Table V, 2 hour IV infusion, 2.59 mg/M^2
[4] = Table V, 2 hour IV infusion, 3.63 mg/M^2
[5] = Table V, 2 hour IV infusion, 3.7 mg/M^2
[6] = Table V, 2 hour IV infusion, 7.4 mg/M^2
[7] = Table V, 2 hour IV infusion, 14.8 mg/M^2
[8] = Table V, 2 hour IV infusion, 29.6 mg/M^2
[9] = Table V, 2 hour IV infusion, 41.4 mg/M^2
[10] = Table V, 2 hour IV infusion, […]^2
[11] = Table VI, 2 hour IV infusion, 1.85 mg/m^2, N 1
[12] = Table VI, 2 hour IV infusion, 3.7 mg/m^2, N 1
[13] = Table VI, 2 hour IV infusion, 7.4 mg/m^2, N 1
[14] = Table VI, 2 hour IV infusion, 14.8 mg/m^2, N 1
[15] = Table VI, 2 hour IV infusion, 29.6 mg/m^2, N 6
[16] = Table VI, 2 hour IV infusion, 41.4 mg/m^2, N 6
[17] = Table VI, 2 hour IV infusion, 50 mg/m^2, N 10
[18] = Table VI, 2 hour IV infusion, 58 mg/m^2, N 3
[19] = Table VII, 2 hour IV infusion, 1.85 mg/m^2, N 1
[20] = Table VII, 2 hour IV infusion, 3.7 mg/m^2, N 1
[21] = Table VII, 2 hour IV infusion, 7.4 mg/m^2, N 1
[22] = Table VII, 2 hour IV infusion, 14.8 mg/m^2, N 1
[23] = Table VII, 2 hour IV infusion, 29.6 mg/m^2, N 5
[24] = Table VII, 2 hour IV infusion, 41.4 mg/m^2, N 6
[25] = Table VII, 2 hour IV infusion, 50 mg/m^2, N 10
[26] = Table VII, 2 hour IV infusion, 58 mg/m^2, N 3
[27] = Table VIII cumulative data, Day 1, 2-hour IV infusion, 0.66 mg/m^2, N 1
[28] = Table VIII cumulative data, Day 1, 2-hour IV infusion, 1.32 mg/m^2, N 1
[29] = Table VIII cumulative data, Day 1, 2-hour IV infusion, 1.85 mg/m^2, N 5
[30] = Table VIII cumulative data, Day 1, 2-hour IV infusion, 1.85 mg/m^2, N = 4
[31] = Table VIII cumulative data, Day 1, 2-hour IV infusion, 2.59 mg/m^2, N 3
[32] = Table VIII cumulative data, Day 1, 2-hour IV infusion, 2.59 mg/m^2, N = 2
[33] = Table VIII cumulative data, Day 1, 2-hour IV infusion, 3.63 mg/m^2, N 7
[34] = Table VIII cumulative data, Day 1, 2-hour IV infusion, 3.63 mg/m^2, N = 6
[35] = Table VIII cumulative data, Day 1, 2-hour IV infusion, 3.7 mg/m^2, N 1
[36] = Table VIII cumulative data, Day 1, 2-hour IV infusion, 5.08 mg/m^2, N 3
[37] = Table VIII cumulative data, Day 1, 2-hour IV infusion, 7.11 mg/m^2, N 1
[38] = Table VIII cumulative data, Day 1, 2-hour IV infusion, 7.4 mg/m^2, N 1
[39] = Table VIII cumulative data, Day 1, 2-hour IV infusion, 14.8 mg/m^2, N 1
[40] = Table VIII cumulative data, Day 1, 2-hour IV infusion, 29.6 mg/m^2, N 6
[41] = Table VIII cumulative data, Day 1, 2-hour IV infusion, 29.6 mg/m^2, N = 5
[42] = Table VIII cumulative data, Day 1, 2-hour IV infusion, 41.4 mg/m^2, N 6
[43] = Table VIII cumulative data, Day 1, 2-hour IV infusion, 50 mg/m^2, N 10
[44] = Table VIII cumulative data, Day 1, 2-hour IV infusion, 58 mg/m^2, N 3
[45] = Table VIII cumulative data, Day 1, 2-hour IV infusion, […]^2, N 1

## CCc1cnn2c(NCc3ccc[n+]([O-])c3)cc(N3CCCC[C@H]3CCO)nc12 [Formula II]
1.85 mg/m^2 on days 1, 8, 15 of 28 day cycle
  drug accumulation: drug accumulation is not evident
2-hour infusions
  dosage at which plasma levels of 25 nM (10 ng/mL) are available: greater than 1.32 mg/m^2
[1]
  AUC: 32.1 ng·h/mL
  CL: 20.6 L/(hr m^2)
  Cmax: 18.6 ng/mL
  t1/2: 1.48 h
Table V, 2 hour IV infusion, 1.32 mg/M^2
  Cmax: 63.8 ng/mL
[2]
  AUC: 201.2 (38) ng hr/mL
  CL: 10.2 (36) L/(hr m^2)
  Cmax: 95.7 (26) ng/mL
  t1/2: 2.29 (45) hours
[3]
  AUC: 213 (35) ng hr/mL
  CL: 12.9 (35) L/(hr m^2)
  t1/2: 3.0 (1) hours
[4]
  AUC: 423 (91) ng hr/mL
  CL: 14.7 (91) L/(hr m^2)
  Cmax: 163 (63) ng/mL
  t1/2: 2.56 (38) hours
[5]
  AUC: 336 ng·h/mL
  CL: 11.0 L/(hr m^2)
  Cmax: 136 ng/mL
  t1/2: 2.75 h
[6]
  AUC: 972 ng·h/mL
  CL: 7.62 L/(hr m^2)
  Cmax: 353 ng/mL
  t1/2: 2.86 h
[7]
  AUC: 1053 ng·h/mL
  CL: 14.1 L/(hr m^2)
  Cmax: 396 ng/mL
  t1/2: 2.78 h
[8]
  AUC: 2434 (45) ng hr/mL
  CL: 14.0 (40) L/(hr m^2)
  Cmax: 890 (44) ng/mL
  t1/2: 2.98 (11) hours
[9]
  AUC: 3041 (51) ng hr/mL
  Cmax: 1343 (48) ng/mL
  t1/2: 2.80 (29) hours
[10]
  CL: 13.1 L/(hr m^2)
  t1/2: 2.01 h
[11]
  AUC(tf) Mean: 134 ng·h/mL
  Cmax Mean: 62.5 ng/mL
  Tmax Median: 1 h
  tf Median: 8 h
[12]
  AUC(tf) Mean: 336 ng·h/mL
  Cmax Mean: 136 ng/mL
  Tmax Median: 2 h
  tf Median: 24 h
[13]
  AUC(tf) Mean: 970 ng·h/mL
  Cmax Mean: 353 ng/mL
  Tmax Median: 2 h
  tf Median: 24 h
[14]
  AUC(tf) Mean: 1050 ng·h/mL
  Cmax Mean: 396 ng/mL
  Tmax Median: 2 h
  tf Median: 24 h
[15]
  AUC(tf) Mean: 2040 ng·h/mL
  Cmax Mean: 890 ng/mL
  Tmax Median: 1 h
  tf Median: 24 h
[16]
  AUC(tf) Mean: 2870 ng·h/mL
  Cmax Mean: 1300 ng/mL
  Tmax Median: 2 h
  tf Median: 24 h
[17]
  AUC(tf) Mean: 4050 ng·h/mL
  Cmax Mean: 1820 ng/mL
  Tmax Median: 1.5 h
  tf Median: 24 h
[18]
  AUC(tf) Mean: 3290 ng·h/mL
  Cmax Mean: 1460 ng/mL
  Tmax Median: 1 h
  tf Median: 24 h
[19]
  AUC(I) Mean: 136 ng·h/mL
  CL Mean: 13.6 L/hr/m^2
  t½ Mean: 1.42 h
[20]
  AUC(I) Mean: 336 ng·h/mL
  CL Mean: 11.0 L/hr/m^2
  t½ Mean: 2.75 h
[21]
  AUC(I) Mean: 972 ng·h/mL
  CL Mean: 7.62 L/hr/m^2
  t½ Mean: 2.86 h
[22]
  AUC(I) Mean: 1050 ng·h/mL
  CL Mean: 14.1 L/hr/m^2
  t½ Mean: 2.78 h
[23]
  AUC(I) Mean: 2430 ng·h/mL
  CL Mean: 14.0 L/hr/m^2
Table VII, 2 hour IV infusion, 29.6 mg/m^2, n = 4
  t½ Mean: 2.98 h
[24]
  AUC(I) Mean: 2890 ng·h/mL
  CL Mean: 26.8 L/hr/m^2
  t½ Mean: 2.84 h
[25]
  AUC(I) Mean: 4090 ng·h/mL
  CL Mean: 16.3 L/hr/m^2
  t½ Mean: 2.90 h
[26]
  AUC(I) Mean: 3300 ng·h/mL
  CL Mean: 19.7 L/hr/m^2
  t½ Mean: 3.15 h
[27]
  AUC(I) Mean: 32.1 ng·h/mL
  CL Mean: 20.6 L/hr/m^2
  Cmax Mean: 18.6 ng/mL
  Tmax Median: 2 h
  t½ Mean: 1.48 h
[28]
  Cmax Mean: 63.8 ng/mL
  Tmax Median: 2 h
[29]
  Cmax Mean: 91.0 ng/mL
  Tmax Median: 2 h
[30]
  AUC(I) Mean: 201 ng·h/mL
  CL Mean: 10.2 L/hr/m^2
  t½ Mean: 2.29 h
[31]
  Cmax Mean: 124 ng/mL
  Tmax Median: 1 h
[32]
  AUC(I) Mean: 213 ng·h/mL
  CL Mean: 12.9 L/hr/m^2
  t½ Mean: 3.02 h
[33]
  Cmax Mean: 195 ng/mL
  Tmax Median: 1 h
[34]
  AUC(I) Mean: 446 ng·h/mL
  CL Mean: 11.3 L/hr/m^2
  t½ Mean: 2.63 h
[35]
  AUC(I) Mean: 336 ng·h/mL
  CL Mean: 11.0 L/hr/m^2
  Cmax Mean: 136 ng/mL
  Tmax Median: 2 h
  t½ Mean: 2.75 h
[36]
  AUC(I) Mean: 327 ng·h/mL
  CL Mean: 15.9 L/hr/m^2
  Cmax Mean: 173 ng/mL
  Tmax Median: 2 h
  t½ Mean: 3.19 h
[37]
  AUC(I) Mean: 588 ng·h/mL
  CL Mean: 12.1 L/hr/m^2
  Cmax Mean: 347 ng/mL
  Tmax Median: 1 h
  t½ Mean: 3.16 h
[38]
  AUC(I) Mean: 972 ng·h/mL
  CL Mean: 7.62 L/hr/m^2
  Cmax Mean: 353 ng/mL
  Tmax Median: 2 h
  t½ Mean: 2.86 h
[39]
  AUC(I) Mean: 1050 ng·h/mL
  CL Mean: 14.1 L/hr/m^2
  Cmax Mean: 396 ng/mL
  Tmax Median: 2 h
  t½ Mean: 2.78 h
[40]
  Cmax Mean: 890 ng/mL
  Tmax Median: 1 h
[41]
  AUC(I) Mean: 2430 ng·h/mL
  CL Mean: 14.0 L/hr/m^2
  t½ Mean: 2.98 h
[42]
  AUC(I) Mean: 2890 ng·h/mL
  CL Mean: 26.8 L/hr/m^2
  Cmax Mean: 1300 ng/mL
  Tmax Median: 2 h
  t½ Mean: 2.84 h
[43]
  AUC(I) Mean: 4090 ng·h/mL
  CL Mean: 16.3 L/hr/m^2
  Cmax Mean: 1820 ng/mL
  Tmax Median: 1.5 h
  t½ Mean: 2.90 h
[44]
  AUC(I) Mean: 3300 ng·h/mL
  CL Mean: 19.7 L/hr/m^2
  Cmax Mean: 1460 ng/mL
  Tmax Median: 1 h
  t½ Mean: 3.15 h
[45]
  CL Mean: 13.1 L/hr/m^2
  Tmax Median: 1 h
  t½ Mean: 2.01 h
Dosages of from […]^2 to 41.4 mg/m^2
  clearance versus dose: clearance is dosage independent
Dosages of from […]^2 to 41.4 mg/m^2, day 1 and day 15
  exposure (AUC) versus dose: dose-proportional increases in exposure
Two hour infusion, 3.7 mg/M^2
  AUC: about 336 ng hr/mL
  Cmax: about 136 ng/ml
  t1/2: about 2.75 hours
Two hour infusion, 7.4 mg/M^2
  Cmax: about 353 ng/ml
  t1/2: about 2.86 hours
Two hour infusion, 14.8 mg/M^2
  Cmax: about 396 ng/ml
  t1/2: about 2.78 hours
Two hour infusion, 41.4 mg/M^2
  t1/2: about 2.8 hours
Two hour infusion, 50 mg/M^2
  Cmax: about 1820 ng/ml
  t1/2: about 2.9 hours
Two hour infusion, 58 mg/M^2
  Cmax: about 1460 ng/ml
  t1/2: about 3.2 hours
